Source: PubChem BioAssay (NCI)
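Interpolation was linear, between the two tested concentrations surrounding the appropriate level; five concentrations were tested over 48 hours in 96-well plates. GI50: concentration for 50% inhibition of growth. TGI marks complete inhibition of growth.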

Tests used:
Test in all cases: NCI tumour cell line growth inhibition, 48 h
[1] = test system: A498 renal
[2] = test system: ACHN renal
[3] = test system: CCRF-CEM leukemia
[4] = test system: HCT-116 colon
[5] = test system: HS 578T breast
[6] = test system: LOX IMVI melanoma
[7] = test system: MOLT-4 leukemia
[8] = test system: NCI/ADR-RES ovarian
[9] = test system: PC-3 prostate
[10] = test system: UACC-62 melanoma

Structure (SMILES)	TGI [1] [µM]	TGI [2] [µM]	TGI [3] [µM]	TGI [4] [µM]	TGI [5] [µM]	TGI [6] [µM]	TGI [7] [µM]	TGI [8] [µM]	TGI [9] [µM]	TGI [10] [µM]	GI50 [1] [µM]	GI50 [2] [µM]	GI50 [3] [µM]	GI50 [4] [µM]	GI50 [5] [µM]	GI50 [6] [µM]	GI50 [7] [µM]	GI50 [8] [µM]	GI50 [9] [µM]	GI50 [10] [µM]
CC(=O)c1ccc(NCN2C(=O)c3ccccc3C2=O)cc1	> 100	> 100	> 100	> 100	> 100	> 100	> 100	> 100	> 100	> 100										
CCN1CCN(C(=O)[C@]23CCC(C)(C)C[C@@H]2C2=CC[C@@H]4[C@@]5(C)C/C(=C/c6cccnc6)C(=O)C(C)(C)[C@@H]5CC[C@@]4(C)[C@]2(C)CC3)CC1	3.53	10.5	9.02	2.22	5.37	2.73	5.2	3.46	2.79	2.83	1.66	2.6	2.1	1.01	1.83	1.36	1.03	1.57	1	1.28
CCN(CC(COc1ccc2c(c1)[n+]([O-])nc(N)[n+]2[O-])OC(C)=O)C(C)=O (centres undefined)	> 100	> 100	> 100	> 100	> 100	> 100	> 100	> 100	> 100	> 100										
N=c1ccn2c(n1)O[C@@H]1[C@@H](O)[C@H](CO)O[C@@H]12	> 100	> 100	> 100	> 100	> 100	> 100	> 100	> 100	> 100	> 100	> 100	1.45	0.0773	0.519	> 100	6.97	0.161	2.08	7.57	4.93
O=C(Nc1ccc(Br)cc1F)c1cc(Br)ccc1O	1.12	9.18	> 44.4	4.28	5.66	4.47	4.49	5.44	7.69	1.23	0.246	0.848	2.03	0.732	0.467	0.668	1.45	0.876	2.06	0.303
Cc1ccccc1/C=C1\CN(C(=O)OC(C)(C)C)C/C(=C\c2ccccc2C)C1=O	6.24	7.15	12.6	4.57	83.1	3.6	21.8	65.1	7.69	4.42	3	2.7	2.9	1.9	3.99	1.88	2.9	3.49	2.5	2
CN1CCCN(C(c2ccccc2)c2ccc(Br)cc2)CC1 (centres undefined)	17.9	14.1	18.9	4.23	6.35	10.1	58.2		13.5	4.35	5.86	3.62	4.14	1.84	2.37	2.85	3.92	3.09	2.87	2.03
Cc1nc2cc(N)c(Cl)cc2[nH]1	> 100	> 100	> 100	> 100	> 100	> 100	> 100	> 100	> 100	> 100										
Cc1ccc(S(=O)(=O)n2cc(-c3nnnn3-c3ccc(Cl)cc3)c(=O)c3ccccc32)cc1	> 100	> 100	> 100	> 100	> 100	> 100	57	> 100	> 100	> 100	77.3	> 100	43.4	45.9	> 100	> 100	21.2	> 100	57.3	54.8
O=C(/C=C/c1cccnc1)c1ccccc1O	31.4	37.6	> 100	34.9	> 100	30.8	73.5	> 100	66.8	35.3	15.2	16.7	22.7	16.8	35.9	14.4	23	24.6	21.9	16.2
